Source: patent publication US6030950A, “Pharmaceutical therapeutic use of glutathione derivative” (priority 1987, dated 2000)
Like-named read-outs stand apart in the source and are kept apart here.

Legend:
[1] = rabbit ear venous blood, oxygen deficiency stress, 10 mg/kg, 5-10 minutes after administration; n=30
Method: 2.1) Animal Experiments with rabbits to improve and/or normalize the redox status of the blood:
In 5 different rabbits, the following parameters were measured by the method and with the instrument of VINCENT in 30 experiments in venous blood:
redox potential E H or electron potential: rH2
The values were measured in the venous blood of the ear after a defined oxygen deficiency stress.
The following values were determined 5-10 minutes after the glutathione one was administered:
Boundary conditions: Temperature of 20° C., air pressure of 767 mm Hg.

[2] = cited from earlier work
glutathione reductase = glutathione reductase (Homo sapiens, UniProt P00390); conditions: incubation with 0.5 mg reduced glutathione, 37° C., 30 minutes; n=22, average and standard deviation
Sequence of glutathione reductase (P00390 44-522): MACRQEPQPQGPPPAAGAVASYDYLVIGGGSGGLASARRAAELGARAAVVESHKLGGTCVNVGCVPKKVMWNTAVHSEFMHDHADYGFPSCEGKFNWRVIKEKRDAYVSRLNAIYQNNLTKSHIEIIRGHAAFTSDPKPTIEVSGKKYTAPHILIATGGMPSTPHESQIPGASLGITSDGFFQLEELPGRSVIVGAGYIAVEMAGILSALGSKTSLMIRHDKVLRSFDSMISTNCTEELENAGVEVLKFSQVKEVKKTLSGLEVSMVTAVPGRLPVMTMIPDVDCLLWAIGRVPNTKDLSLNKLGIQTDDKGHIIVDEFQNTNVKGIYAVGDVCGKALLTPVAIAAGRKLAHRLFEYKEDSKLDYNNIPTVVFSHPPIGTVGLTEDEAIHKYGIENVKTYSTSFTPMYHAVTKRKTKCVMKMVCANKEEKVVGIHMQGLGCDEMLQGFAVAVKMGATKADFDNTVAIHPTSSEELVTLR
Excerpt: (§1) 1.2) In vitro experiment on cell systems of human erythrocytes Under the same conditions as those for the experiment described above, the enzymes, glucose-6-phosphate dehydrogenase and glutathione reductase, from the erythrocytes of 22 patients, were investigated in vitro. n=22 (average value and standard deviation are given)

[3] = biological target: glucose-6-phosphate dehydrogenase (Homo sapiens, UniProt P11413); conditions: incubation with 0.5 mg reduced glutathione, 37° C., 30 minutes; n=22, average and standard deviation
Sequence of glucose-6-phosphate dehydrogenase (P11413 2-515 limits assumed): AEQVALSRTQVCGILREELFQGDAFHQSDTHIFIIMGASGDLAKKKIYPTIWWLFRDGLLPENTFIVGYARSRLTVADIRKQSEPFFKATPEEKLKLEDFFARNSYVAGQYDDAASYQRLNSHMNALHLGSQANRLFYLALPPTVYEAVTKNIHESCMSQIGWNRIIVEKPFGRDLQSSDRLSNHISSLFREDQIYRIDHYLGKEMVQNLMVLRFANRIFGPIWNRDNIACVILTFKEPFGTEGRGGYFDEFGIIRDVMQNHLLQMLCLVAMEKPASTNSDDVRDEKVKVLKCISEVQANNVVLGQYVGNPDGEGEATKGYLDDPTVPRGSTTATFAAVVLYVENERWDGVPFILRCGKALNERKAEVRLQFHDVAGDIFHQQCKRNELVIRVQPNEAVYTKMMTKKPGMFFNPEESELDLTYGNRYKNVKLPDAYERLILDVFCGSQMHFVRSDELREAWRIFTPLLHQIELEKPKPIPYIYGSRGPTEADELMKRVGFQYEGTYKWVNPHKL
Excerpt: as §1

[4] = cited from earlier work; remark: listed apart in the source
[5] = tested on: malignant melanoma from man; conditions: 300 mg three times per week
Excerpt: 2.4) Experiment with 40 healthy gray mice after transplantation of a malignant melanoma from person.
Forty healthy gray mice were inoculated with 10^6 malignant melanoma cells each.
III.1 Experiment with 40 healthy gray mice after transplantation of a malignant melanoma from person.

[6] = human blood, oxygen deficiency stress, 600 mg slowly intravenously, 10 minutes after administration; n=50
Method: 2.2) Self-experiment on man to improve and/or normalize the redox status of the blood:
After a defined oxygen deficiency stress, the same parameters were determined in human blood as in the trial described above. In all 50 trials were carried out on different days
After that, glutathione was slowly administered intravenously in an amount of 600 mg.
Boundary conditions: Temperature of 20° C., air pressure of 758-770 mm Hg.

human erythrocytes = conditions: incubation with 0.5 mg of reduced glutathione, 37° C., 30 minutes; 10 mL heparinised venous blood; n=20, average and standard deviation
Method: 1.1) In vitro experiment with human erythrocytes to improve and normalize the redox behavior:
Human venous blood (10 mL) was taken from each of 20 patients with different diseases and prevented from clotting by the addition of heparin.

[7] = in vivo

In the case of `N[C@@H](CCC(=O)N[C@@H](CS)C(=O)NCC(=O)O)C(=O)O` [reduced glutathione, gamma-glutamyl-cysteinyl-glycine], the “redox potential or electron potential rH2” value [1] is listed as 21.8 ± 0.95, the “pK value for COOH(1)” value ([2]; COOH(1)) is listed as 3.53 and the “pK value for COOH(2)” value ([2]; COOH(2)) is listed as 2.12. The “pK value for NH3+” value ([2]; NH3^+) was 8.66, the “pK value for SH” value ([2]; SH) was 9.66 and the “glutathione reductase, value after incubation” value (glutathione reductase) was 11.3±1.2 U/10^11 erys. The “glucose-6-phosphate dehydrogenase, value after incubation” value [3] was 179±16 mU/10^9 erys, the solubility in ethanol ([4]; ethanol) was “soluble” and the “solubility in water and physiological salt solution” value ([4]; water and physiological salt solution) was “readily soluble”. The “further animals died within 20 days” value ([5]; 30 mice, 10^6 melanoma cells) was “five”, the “further animals died within 30 days” value ([5]; 30 mice, 10^6 melanoma cells) was “seven” and the “animals died within 15 days” value ([5]; 30 mice, 10^6 melanoma cells, untreated controls died within 8-12 days) was “three”. The “share of treated animals that survived the period of observation” value ([5]; 30 days after inoculation) was 50%, the “animals that survived the period of observation” value ([5]; of 30 treated mice, 30 days after inoculation) was “Fifteen” and the “redox potential or electron potential rH2” value [6] was 23.1 ± 1.4. For the same molecule, the “content of intraerythrocytic reduced glutathione, value of incubation” value (human erythrocytes) was 1.99±0.15 mU and the “toxicity of the therapeutic dosage” value [7] was “nontoxic”.
